Laboratory results from patent US20090325871A1, “Role of the Mk2 Pathway in Wound Repair” (priority 2006, published 2009).
“Also recorded” adds a separate entry of the source.

Experiments:
Assay type in all cases: cell-based, mouse
[1] = system: SRE promoter; test: SRE-luciferase promoter-reporter assay in WT MEF; details: TGFβ 1 ng/mL
Protocol: (§1) For SRE promoter-reporter assays WT and MK2^−/− MEF, were transfected with the SRE.L-luciferase vector which contains two copies of SRE.L, a derivative of c-fos serum response element driving the expression of luciferase. The SRE.L vector was introduced alone in the case of WT MEF, and co-transfected with pMEpuro (a selection vector which confers resistance to puromycin to eukaryotic cells) in the case of MK2^−/− MEF. The vectors were introduced (5 μg of SRE.L, and 0.5 μg pMEpuro) into MEF using lipofectamine. Stable transfected WT MEF cell lines were obtained by selection with geneticin, and resistant colonies were isolated, expanded, and then screened for baseline luciferase activity. Since the MK2^−/− MEF were already resistant to geneticin, stable transfectants produced by co-transfection with pMEpuro were selected with puromycin, and resistant clones were isolated and expanded as above. The firefly luciferase activity was assayed using a kit from Promega (Madison, Wis.) according to the manufacturer's instructions. In brief, cells were lysed and the substrate (beetle luciferin) was added to the lysate. Next, chemiluminescence was measured using a luminometer.
Since smα induction by several agents including TGFβ has been reported to occur through activation of serum response elements (SRE) in the smα promoter, whether this activation occurs in WT MEF was tested.

[2] = system: SRE promoter; test: SRE-luciferase promoter-reporter assay in MK2−/− MEF; details: TGFβ 1 ng/mL
Protocol: as §1
Since MK2 has been reported to phosphorylate SRF, whether the effect of MK2 suppression on smα expression is due to its effect on the SRE promoter was tested. […]

[3] = system: WT MEF; test: smα-actin protein level by Western blot in WT MEF; details: TGFβ 1 ng/mL for 24 hours
Protocol: (§2) Aliquots from the cell lysates prepared as described above were assayed for protein using the Bradford protein assay and then diluted with 2× Laemmli loading buffer for SDS-PAGE. Equal amounts of protein were then loaded in each well of 4-20% Tris/glycine gels. After electrophoresis for 90 min at 125 V constant voltage, the gel was blotted onto an Immobilon-P membrane by electrophoretic transfer at 25 V constant voltage overnight. The membrane was then washed, blocked with 5% milk, and probed with antibodies against MK2 (Cell Signaling, Beverly, Mass.) smα (Sigma, St. Louis, Mo.) or pan-actin (Santa Cruz, Santa Cruz, Calif.). The immunoreactive bands were visualized using a secondary antibody conjugated to horseradish peroxidase (Pierce, Rockford, Ill.).and a chemiluminescent substrate according to the manufacturer's instructions (SuperSignal, Pierce, Rockford, Ill.). The intensity of the bands was quantified using a UnScanIt software (Orem, Utah).
(§3) TGFβhas been implicated in the fibrotic response because of its ability to induce differentiation of fibroblasts into myofibroblasts. Whether TGFβ can induce myofibroblast differentiation in both WT MEF and MK2^−/− MEF was tested. Cells were growth arrested in serum free media for 24 hr then exposed to TGFβ (1 ng/mL).

[4] = system: MK2−/− MEF; test: smα-actin protein level by Western blot in MK2−/− MEF; details: TGFβ 1 ng/mL for 24 hours
Protocol: as §2, §3

[5] = system: WT MEF; test: smα mRNA level by semiquantitative RT-PCR in WT MEF; details: TGFβ 1 ng/mL for 24 hours
Protocol: (§4) Semiquantitative RT-PCR to measure mRNA in mouse MEF was used. In brief, RNA was isolated from treated or untreated MEF using the RNeasy kit (Qiagen, Valencia, Calif.) according to manufacturesr's instructions. The amount of RNA was determined spectrophotometrically, and equal amounts were used to generate cDNA by reverse transcription using the Superscript III system (Invitrogen, Carlsbad, Calif.) according to manufacturer's instructions. Next an equal volume of the cDNA was added to a master mix containing the following primers. For sma, the primers 5′-GCATCCACGAAACCACCTA-3′ and 5′-[…]-3′ were used to generate a 418 bp PCR product from mouse smooth muscle α-actin cDNA. For β-actin, the primers 5′-[…]-3′ and 5′-[…]-3′) were used to generate 348 bp product from mouseβ-actin cDNA. The primers 5′-[…]-3′ and 5′-[…]3′ were used to generate a 142 bp product from mouse procollagen type I alpha 1 cDNA. The PCR reaction was carried out as using a Bio-Rad I-cycler thermal cycler (Hercules, Calif.). […] After staining with ethidium bromide, photographs of the gels were taken, scanned, and the intensity of the bands was measured using UnScanIt software (Orem, Utah). The relative amount of smα and procollagen RNA was determined by dividing the intensity of their corresponding PCR product band by the intensity of the β-actin PCR product band.

[6] = system: MK2−/− MEF; test: smα mRNA level by semiquantitative RT-PCR in MK2−/− MEF; details: TGFβ 1 ng/mL for 24 hours
Protocol: as §4

[7] = system: WT MEF; test: procollagen type I α1 mRNA level by RT-PCR in WT MEF; details: TGFβ 1 ng/mL for 24 hours
Protocol: as §4

[8] = system: MK2−/− MEF; test: procollagen type I α1 mRNA level by RT-PCR in MK2−/− MEF; details: TGFβ 1 ng/mL for 24 hours
Protocol: as §4

[9] = SB-203580 1 μM, measured at 6 hours
[10] = greatest after 6 hours, baseline by 24 hours

Row | Molecule | block of TGFβ activation of SRE-luciferase promoter [1, 9] | block of TGFβ activation of SRE-luciferase promoter [2, 9] | SRE-luciferase promoter activity [1, 10] | SRE-luciferase promoter activity [2, 10] | smα-actin protein level [3] | smα-actin protein level [4] | smα mRNA level [5] | smα mRNA level [6] | procollagen type I α1 mRNA level [7] | procollagen type I α1 mRNA level [8]
1 | C[S+]([O-])c1ccc(-c2nc(-c3ccncc3)c(-c3ccc(F)cc3)[nH]2)cc1 (stereo not shown) [SB-203580, reference compound] | partially blocked | completely blocked | – | – | – | – | – | – | – | –
2 | TGFβ | – | – | SRE promoter activity increased; also recorded: caused activation | SRE promoter activity increased; also recorded: caused activation | smα-actin level increased; also recorded: produce more sma | did not respond to TGFβ by increasing smα-actin; also recorded: produce even less smα | increased; also recorded: appeared to increase | significantly reduced; also recorded: significantly decreased | did not appear to alter | did not appear to alter; also recorded: did not suppress
